Source: patent US20200170254A1, “OXADIAZOLINE COMPOUND AND FORMULATION FOR CONTROLLING HARMFUL ORGANISMS” (Nippon Soda Co., Ltd., priority 2017, published 2020)

Key:
Assay type in all cases: in vivo
[1] = test system: Mythimna separata; assay: Efficacy test against Mythimna separata (Test Example 1); details: 144 h, corn leaves soaked, second-instar larvae, 6 days after inoculation, read-out: Insect mortality rate
Experimental: (§1) 5 parts of the compound of the present invention, 93.6 parts of dimethylformamide and 1.4 parts of polyoxyethylene alkyl aryl ether were mixed and dissolved to prepare Emulsion (I) including 5% of an active ingredient. For the control, Emulsion (II) was prepared by mixing and dissolving 93.6 parts of dimethylformamide and 1.4 parts of polyoxyethylene alkyl aryl ether.
(§2) An insect mortality rate was calculated by the numerical equation shown below.
(§3) Insect mortality rate (%)={(Number of dead insects)/(Number of sample insects)}×100
(Test Example 1) Efficacy Test against Mythimna separata Emulsion (I) was diluted with water so that the concentration of the compound of the present invention was 125 ppm. Corn leaves were soaked in the diluted liquid for 30 seconds. Subsequently, the corn leaves were put on Petri dishes, followed by inoculating 5 second-instar larvae of Mythimna separata. The Petri dishes were placed in a thermostatic chamber at a temperature of 25° C. and humidity of 60%. Mortality was investigated 6 days after inoculation, and the insect mortality rate was calculated.

[2] = test system: Aphis gossypii; assay: Efficacy test against Aphis gossypii (Test Example 2); details: 144 h, sprayed on cucumber plants with nymphs, 6 days after spraying, read-out: Insect mortality rate
Experimental: as §1, §2, §3
Cucumber seedlings were inoculated with nymphs of Aphis gossypii. Emulsion (I) was diluted with water so that the concentration of the compound of the present invention was 125 ppm. Subsequently, the aforementioned diluted liquid was sprayed on the cucumber plants on which the nymphs of Aphis gossypii were parasitic. The aforementioned cucumber plants were then placed in a thermostatic chamber with a temperature of 25° C. and humidity of 60%. Mortality was investigated 6 days after spraying was carried out, and the insect mortality rate of Aphis gossypii was calculated.

[3] = test system: Thrips palmi; assay: Efficacy test against Thrips palmi, spray on cucumber seedlings (Test Example 3); details: 168 h, sprayed on cucumber seedlings, 7 days after spraying, read-out: controlling rate
Experimental: as §1
Cucumber seedlings were inoculated with 8 adults of Thrips palmi. Emulsion (I) was diluted with water so that the concentration of the compound of the present invention was 125 ppm. Subsequently, the aforementioned diluted liquid was sprayed on the cucumber seedlings, and then air dried. The number of the parasitic larvae was counted 7 days after spraying. The efficacy of the compounds was evaluated by the controlling rate described below.
Controlling rate (%)={1−(Nt)/(Nc)}×100
In which Nt: number of parasites at the legion spray-treated. • Nc: number of parasites at the legion non-treated (control).

Row | SMILES | mortality at 125 ppm [1] | mortality at 125 ppm [2] | pest or weed control at 125 ppm [3]
1 | CN1OC2(CC(c3ccccc3)c3ccccc32)N=C1NC(C)(C)C (stereo not drawn) [a-25] | ≥ 80% | ≥ 80% | ≥ 80%
2 | CN1OC2(N=C1N(C)C(C)(C)C)c1ccccc1CCc1sc(Cl)cc12 (stereo not drawn) [a-37] | – | – | ≥ 80%
3 | CCN(C1=NC2(ON1N)c1ccccc1C=Cc1ccccc12)C(C)(C)C [a-18] | ≥ 80% | – | –
4 | CN1OC2(CC(C)(C)Oc3ccc(F)cc32)N=C1NC(C)(C)C (stereo not drawn) [a-20, N-(tert-butyl)-6-fluoro-2,2,2′-trimethyl-2′H-spiro [chromane-4,5′-[1,2,4]oxadiazol]-3′-amine] | ≥ 80% | ≥ 80% | –
5 | CN1OC2(N=C1N(C)C(C)(C)C)c1ccccc1COc1ccccc12 (stereo not drawn) [a-23] | – | – | ≥ 80%
6 | CN1OC2(N=C1N(C)C(C)(C)C)c1ccccc1CCc1sccc12 (stereo not drawn) [a-36] | – | – | ≥ 80%
7 | CN1OC2(N=C1NC(C)(C)C)c1ccccc1CCCc1ccccc12 [Compound A-1] | – | ≥ 80% | –
8 | CN(C1=NC2(ON1N)c1ccccc1CCc1ccccc12)C(C)(C)C [a-35] | – | – | ≥ 80%
9 | CC(C)(C)NC1=NC2(CCc3ccccc32)ON1N (stereo not drawn) [a-24] | – | ≥ 80% | –
10 | CN1OC2(N=C1NC(C)(C)C)c1ccccc1C=Cc1ccccc12 [a-19] | ≥ 80% | – | –
11 | CC1CCOc2cc(Cl)ccc2C12N=C(NC(C)(C)C)N(N)O2 (stereo not drawn) [a-30] | ≥ 80% | – | –
12 | CN1OC2(Cc3ccccc3Oc3ccccc32)N=C1NC(C)(C)C (stereo not drawn) [a-22, N-(tert-butyl)-2′-methyl-2′H, 11H-spiro[dibenzo[b,f]oxepine-10,5′-[1,2,4]oxadiazol]-3′-amine] | – | – | ≥ 80%
13 | CN1OC2(CCCOc3ccccc32)N=C1NC(C)(C)C (stereo not drawn) [a-26] | – | ≥ 80% | –
14 | CC(C)(C)NC1=NC2(CCCc3ccccc32)ON1N (stereo not drawn) [a-21] | – | ≥ 80% | –
15 | CN1OC2(N=C1NC(C)(C)C)c1ccc(Cl)cc1OCCC2c1ccccc1 (stereo not drawn) [a-29] | ≥ 80% | – | –
16 | CN1OC2(N=C1N(C)C(C)(C)C)c1ccccc1CCCc1ccccc12 [Compound A-2] | – | ≥ 80% | –
17 | CN1OC2(N=C1N(C)C(C)(C)C)c1ccccc1C=Cc1ccccc12 [a-17] | – | – | ≥ 80%
18 | CN1OC2(N=C1NC(C)(C)C)c1ccccc1COc1ccccc12 (stereo not drawn) [a-11, N-(tert-butyl)-2′-methyl-2′H,6H-spiro[dibenzo[b,e]oxepine-11,5′-[1,2,4]oxadiazol]-3′-amine] | ≥ 80% | – | ≥ 80%
19 | CCN(C1=NC2(ON1C)c1ccccc1COc1ccccc12)C(C)(C)C (stereo not drawn) [a-10] | ≥ 80% | ≥ 80% | ≥ 80%
20 | CCN(C1=NC2(ON1N)c1ccccc1CCc1sc(Cl)cc12)C(C)(C)C (stereo not drawn) [a-38] | – | – | ≥ 80%
21 | Cc1cc2c(s1)CCc1ccccc1C21N=C(NC(C)(C)C)N(C)O1 (stereo not drawn) [a-31] | – | – | ≥ 80%
